# In patent US12428415B2, “Matriptase 2 inhibitors and uses thereof” (Disc Medicine, Inc., priority 2018, dated 2025):
# Read-outs that look alike come from different tables or passages of the source.
# Biological target: T1, Human Recombinant Matriptase 2 (Homo sapiens, UniProt Q8IU80)
# T1 construct: purchased Enzo Life Sciences (an in-house preparation was also used) ALX-201-752-1
# T1 sequence (Q8IU80 1-811): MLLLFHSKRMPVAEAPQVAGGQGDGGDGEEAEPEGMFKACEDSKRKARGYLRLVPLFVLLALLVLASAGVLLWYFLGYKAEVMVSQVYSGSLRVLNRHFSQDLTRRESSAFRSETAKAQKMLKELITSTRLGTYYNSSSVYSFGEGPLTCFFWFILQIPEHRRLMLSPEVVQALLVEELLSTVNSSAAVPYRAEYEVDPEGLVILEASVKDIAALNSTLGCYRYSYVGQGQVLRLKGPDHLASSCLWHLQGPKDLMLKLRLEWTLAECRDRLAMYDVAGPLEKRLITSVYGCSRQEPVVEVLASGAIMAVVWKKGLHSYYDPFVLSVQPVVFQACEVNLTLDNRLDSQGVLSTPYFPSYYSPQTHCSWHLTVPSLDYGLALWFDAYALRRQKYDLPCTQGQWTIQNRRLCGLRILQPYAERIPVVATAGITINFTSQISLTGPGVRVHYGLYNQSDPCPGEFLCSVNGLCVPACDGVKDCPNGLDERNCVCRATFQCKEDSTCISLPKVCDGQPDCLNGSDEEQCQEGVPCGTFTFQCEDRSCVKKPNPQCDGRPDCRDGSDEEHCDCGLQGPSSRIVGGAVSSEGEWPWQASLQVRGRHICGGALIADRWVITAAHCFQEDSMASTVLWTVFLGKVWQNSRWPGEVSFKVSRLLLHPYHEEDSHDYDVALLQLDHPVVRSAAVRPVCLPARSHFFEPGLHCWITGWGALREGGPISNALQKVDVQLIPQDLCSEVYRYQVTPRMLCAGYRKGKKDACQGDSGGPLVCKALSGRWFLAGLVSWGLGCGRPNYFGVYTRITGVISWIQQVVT
# Experiment: Matriptase 2 fluorescence based inhibition assay, Method B (50 mM TRIS pH 7.5, 150 mM NaCl, 0.01% gelatin)
# Assay type: biochemical
# Settings: for inhibition at 1 µM: read-out: Mar-2 % inhibition at 1 uM
# Outline: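 Fluorogenic substrate Boc-Gln-Ala-Arg-7-amido-4-methylcoumarin (100 μM) cleavage read at Ex 360/Em 480 nm 60 min after addition, following 30 min enzyme–compound preincubation at 25° C. Enzyme was 7 nM commercial or 15 nM in-house; DMSO 1%. IC50s fitted by non-linear sigmoidal regression.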
# [1] = compound at 1 uM, Assay Used: B
# [2] = 1 uM compound, Assay Used = B (Method B)
SMILES,"inhibition at 1 µM (1 uM compound, Assay Used = B) [%]",inhibition at 1 µM [2] [%],further results
N=C(N)c1ccc2cc(C(=O)N[C@H]3CC[C@H](N)CC3)n(Cc3cccc4sccc34)c2c1 [Compound I-823],,,inhibition at 1 µM [1]: 50 to 75%
N=C(N)c1ccc2cc(C(=O)N[C@H]3CC[C@H](N)CC3)n(Cc3ccc(C(=O)O)c4ccccc34)c2c1 [Compound I-508],25 to 50,,
N=C(N)c1ccc2cc(C(=O)N[C@H]3CC[C@H](N)CC3)n(Cc3cccc4ccccc34)c2c1 [Compound I-407],75 to 100,,
N=C(N)c1ccc2cc(C(=O)N[C@H]3CC[C@H](N)CC3)n(Cc3cc(Cl)cc(Cl)c3)c2c1 [Compound I-505],25 to 50,,
N=C(N)c1ccc2cc(C(=O)N[C@H]3CC[C@H](N)CC3)n(Cc3cc(N4CCOCC4=O)cc4ccccc34)c2c1 [Compound I-702],,25 to 50,
N=C(N)c1ccc2cc(NC(=O)[C@H]3CC[C@H](N)CC3)n(Cc3cccc4ccccc34)c2c1 [Compound I-671],,,Mar-2 % inhibition at 1 uM [2]: C (C represents 50%≤I≤75%)
NC(=NO)c1ccc2cc(C(=O)O)n(Cc3cccc4ccccc34)c2n1 [Compound I-650],,0 to 25,
CN1CCC(OC(=O)c2cc3ccc(C(=N)N)cc3n2Cc2cccc3ccccc23)CC1 [Compound I-752],,75 to 100,
CN1CCC(CNC(=O)c2cc3ccc(C(=N)N)cc3n2Cc2cc(Oc3ncccn3)cc3ccccc23)CC1 [Compound I-590],75 to 100,,
N=C(N)c1ccc2cc(C(=O)NC3CCOCC3)n(Cc3cccc4ccccc34)c2c1 [Compound I-463],50 to 75,,
N=C(N)c1ccc2cc(C(=O)N3CCC(CO)CC3)n(Cc3cccc4ccccc34)c2c1 [Compound I-444],25 to 50,,
N=C(N)c1ccc2cc(C(=O)O)n(Cc3cccc4ccc(Oc5ccccc5)cc34)c2c1 [Compound I-680],,25 to 50,
CCOC(=O)c1cc2ccc(C(N)=NO)cc2n1Cc1cc(S(=O)(=O)c2ccccc2)cc2ccccc12 [Compound I-658],,0 to 25,
N=C(N)c1ccc2cc(C(=O)OCCO)n(Cc3cc(Oc4ncccn4)cc4ccccc34)c2c1 [Compound I-565],75 to 100,,
N=C(N)c1ccc2cc(C(=O)N[C@H]3CC[C@H](N)CC3)n(CCCc3cccc4ccccc34)c2c1 [Compound I-817],,,inhibition at 1 µM [1]: 0 to 25%
CN1CCC(NC(=O)c2cc3ccc(C(N)=O)cc3n2Cc2cccc3ccccc23)CC1 [Compound I-457],0 to 25,,
CC(C)COC(=O)NC(=N)c1ccc2cc(C(=O)NC3CCN(C)CC3)n(Cc3cc(Oc4ncccn4)cc4ccccc34)c2c1 [Compound I-557],0 to 25,,
NCc1ccc2cc(C(=O)NCC3CCNCC3)n(Cc3cccc4ccccc34)c2c1 [Compound I-534],25 to 50,,
C[C@@H](c1cccc2ccccc12)n1c(C(=O)N[C@H]2CC[C@H](N)CC2)cc2ccc(C(=N)N)cc21 [Compound I-805],,,inhibition at 1 µM [1]: 0 to 25%
N=C(N)c1ccc2cc(C(=O)N[C@H]3CC[C@H](NC=O)CC3)n(Cc3cccc4ccccc34)c2c1 [Compound I-729],,50 to 75,
N=C(N)c1ccc2cc(C(=O)O)n(Cc3csc4ccccc34)c2n1 [Compound I-724],,50 to 75,
CCOC(=O)N1CCC(NC(=O)c2cc3ccc(C(=N)NC(=O)OC(C)(C)C)cc3n2Cc2cccc3ccccc23)CC1 [Compound I-420],0 to 25,,
CC(C)(C)OC(=O)NC(=N)c1ccc2cc(C(=O)N[C@H]3CC[C@H](O)CC3)n(Cc3cccc4ccccc34)c2c1 [Compound I-422],25 to 50,,

SMILES,"inhibition at 1 µM (1 uM compound, Assay Used = B) [%]",inhibition at 1 µM [2] [%],further results
"CC(C)(C)OC(=O)N[C@H]1CC[C@H](c2nnc(-c3cc4ccc(C(=N)N)cc4n3Cc3cccc4ccccc34)o2)CC1 [Compound I-524, tert-butyl ((1r,4r)-4-(5-(6-carbamimidoyl-1-(naphthalen-1-ylmethyl)-1H-indol-2-yl)-1,3,4-oxadiazol-2-yl)cyclohexyl)carbamate]",25 to 50,,
"N=C(N)c1ccc2c(C(=O)O)c(C(=O)N[C@H]3CC[C@H](N)CC3)n(Cc3cccc4ccccc34)c2c1 [Compound I-512, 2-(((1r,4r)-4-aminocyclohexyl)carbamoyl)-6-carbamimidoyl-1-(naphthalen-1-ylmethyl)-1H-indole-3-carboxylic Acid]",50 to 75,,
"N=C(N)c1cc(F)c2cc(C(=O)O)n(Cc3cc(Oc4ncccn4)cc4ccccc34)c2c1 [Compound I-569, 6-carbamimidoyl-4-fluoro-1-((3-(pyrimidin-2-yloxy)naphthalen-1-yl)methyl)-1H-indole-2-carboxylic Acid]",75 to 100,,
"CC(=O)NC(=N)c1ccc2cc(C(=O)NC3CCN(C)CC3)n(Cc3cccc4ccccc34)c2c1 [Compound I-762, 6-(N-acetylcarbamimidoyl)-N-(1-methylpiperidin-4-yl)-1-(naphthalen-1-ylmethyl)-1H-indole-2-carboxamide]",,0 to 25,
N=C(N)c1ccc2cc(C(=O)NCc3ccc(CO)cc3)n(Cc3cccc4ccccc34)c2c1 [Compound I-435],50 to 75,,
N=C(N)c1ccc2cc(C(=O)N[C@H]3CC[C@H](N)CC3)n(Cc3cc(Oc4ncccn4)cc4ccccc34)c2c1 [Compound I-670],,75 to 100,
N=C(N)c1ccc2cc(C(=O)N[C@H]3CC[C@H](N)CC3)n(C(C(=O)O)c3cccc4ccccc34)c2c1 (stereo partly shown) [Compound I-502],0 to 25,,
N=C(N)c1ccc2cc(C(=O)N[C@H]3CC[C@H](N)CC3)n(CCc3cccc4ccccc34)c2c1 [Compound I-409],25 to 50,,
"CCNC(=N)c1ccc2cc(C(=O)N[C@H]3CC[C@H](NC(=O)OC(C)(C)C)CC3)n(Cc3ccc4ccccc4c3)c2c1 [Compound I-411, Tert-butyl ((1r,4r)-4-(6-(N-ethylcarbamimidoyl)-1-(naphthalen-2-ylmethyl)-1H-indole-2-carboxamido)cyclohexyl)carbamate]",0 to 25,,
CCCCCCOC(=O)NC(=N)c1ccc2cc(C(=O)NC3CCN(C)CC3)n(Cc3cccc4ccccc34)c2c1 [Compound I-765],,0 to 25,
"N=C(N)c1ccc2cc(C(=O)O)n(-c3ccc4ccccc4c3)c2c1 [Compound I-488, 6-carbamimidoyl-1-(naphthalen-2-yl)-1H-indole-2-carboxylic Acid]",,,"Mar-2 % inhibition at 1 uM (1 uM compound, Assay Used = B): A (A represents 0%≤I≤25%)"
CC(C)Oc1ccc2c(Cn3c(C(=O)O)cc4ccc(C(=N)N)cc43)cccc2c1 [Compound I-793],,50 to 75,
"NCc1ccc2cc(C(=O)O)n(Cc3cccc4ccccc34)c2c1 [Compound I-538, 6-(aminomethyl)-1-(naphthalen-1-ylmethyl)-1H-indole-2-carboxylic Acid]",25 to 50,,
N=C(N)c1ccc2cc(C(=O)Nc3ccc(N4CCC(F)C4)cc3)n(Cc3cccc4ccccc34)c2c1 (stereo not shown) [Compound I-447],25 to 50,,
CC(C)(C)OC(=O)NC(=N)c1ccc2cc(C(=O)Nc3ccc(NC(=O)c4ccccn4)cc3)n(Cc3cccc4ccccc34)c2c1 [Compound I-419],0 to 25,,
N=C(N)c1ccc2cc(C(=O)N3CCC(CN)CC3)n(Cc3cccc4ccccc34)c2c1 [Compound I-429],50 to 75,,
CC(C)(C)OC(=O)N[C@H]1CC[C@H](NC(=O)c2cc3ccc(C(=N)N)cc3n2Cc2cccc3ccccc23)CC1 [Compound I-787],,0 to 25,
"N=C(N)c1ccc2cc(C(=O)NCC3CCNCC3)[nH]c2c1 [Compound I-496, 6-carbamimidoyl-N-(piperidin-4-ylmethyl)-1H-indole-2-carboxamide]",0 to 25,,
"N=C(N)c1ccc2cc(C(=O)N[C@H]3CC[C@H](N)CC3)n(S(=O)(=O)c3cccc4ccccc34)c2c1 [Compound I-396, N-((1r,4r)-4-aminocyclohexyl)-6-carbamimidoyl-1-(naphthalen-1-ylsulfonyl)-1H-indole-2-carboxamide]",,,"inhibition at 1 µM (at 1 uM, Assay Used = B): 25 to 50%"
N=C(N)c1ccc2cc(C(=O)N[C@H]3CC[C@H](N)CC3)n(Cc3cccc4cc(Oc5ccccc5)ccc34)c2c1 [Compound I-707],,75 to 100,
N=C(N)c1ccc2cc(C(=O)N[C@H]3CC[C@H](N)CC3)n(Cc3cc(Oc4ccccn4)cc4ccccc34)c2c1 [Compound I-599],,75 to 100,
N=C(N)c1ccc2cc(C(=O)O)n(Cc3c(Cl)c(Sc4ccccc4)cc4ccccc34)c2c1 [Compound I-653],,0 to 25,
"N=C(N)c1ccc2cc(-c3nnc([C@H]4CC[C@H](N)CC4)s3)n(Cc3cccc4ccccc34)c2c1 [Compound I-526, 2-(5-((1r,4r)-4-aminocyclohexyl)-1,3,4-thiadiazol-2-yl)-1-(naphthalen-1-ylmethyl)-1H-indole-6-carboximidamide]",75 to 100,,
